Data reported in patent US9526796B2, “Peptide-based in vivo siRNA delivery system” (priority 2010, dated 2016).
Non-standard residues stand in square brackets, D forms with d. Primed or numbered codes have the meaning given here. No end group written: not given here. *: point of attachment. Myristoyl = CCCCCCCCCCCCCC(=O)*; PEG24′ = not defined here; Nle = CCCC[C@H](N)C(=O)O

Key:
ApoB = assay: Knockdown of endogenous serum ApoB in mice after co-injection of masked melittin delivery peptide and ApoB siRNA-cholesterol conjugate; format: in vivo; conditions: for % knockdown: 200 μg siRNA; for percent knockdown: CDM-NAG (5×)
Experimental: (§1) RNAi polynucleotide conjugates and masked melittin peptides were synthesized as described above. Six to eight week old mice (strain C57BL/6 or ICR, ˜18-20 g each) were obtained from Harlan Sprague Dawley (Indianapolis Ind.). Mice were housed at least 2 days prior to injection. Feeding was performed ad libitum with Harlan Teklad Rodent Diet (Harlan, Madison Wis.). Mice were injected with 0.2 mL solution of delivery peptide and 0.2 mL siRNA conjugates into the tail vein. For simultaneous injection of delivery peptide and siRNA, the siRNA-conjugate was added to modified peptide prior to injection and the entire amount was injected. The composition was soluble and nonaggregating in physiological conditions. Solutions were injected by infusion into the tail vein.
Mice were fasted for 4 h (16 h for rats) before serum collection by submandibular bleeding. For rats blood was collected from the jugular vein. Serum ApoB protein levels were determined by standard sandwich ELISA methods. Briefly, a polyclonal goat anti-mouse ApoB antibody and a rabbit anti-mouse ApoB antibody (Biodesign International) were used as capture and detection antibodies respectively. An HRP-conjugated goat anti-rabbit IgG antibody (Sigma) was applied afterwards to bind the ApoB/antibody complex. Absorbance of tetramethyl-benzidine (TMB, Sigma) colorimetric development was then measured by a Tecan Safire2 (Austria, Europe) microplate reader at 450 nm.
Melittin was reversibly modified with CDM-NAG as described above. The indicated amount of melittin was then co-injected with the 200 μg ApoB siRNA-cholesterol conjugate. Effect on ApoB levels were determined as described above.
Melittin was reversibly modified with CDM-NAG as described above. The indicated amount of melittin was then co-injected with 50 μg ApoB siRNA-cholesterol conjugate. Effect on ApoB levels were determined as described above.
Melittin was reversibly modified with CDM-NAG (5×) as described above. The indicated amount of melittin was then co-injected with the indicated amount of ApoB siRNA-cholesterol conjugate. Effect on ApoB levels were determined as described above.
Melittin was reversibly modified with the indicated amount of CDM-NAG as described above. 50 μg melittin was then co-injected with the 100 μg ApoB siRNA-cholesterol conjugate. Effect on ApoB levels were determined as described above.
Melittin peptides having the indicated sequence were reversibly modified with CDM-NAG (5×) as described above. The indicated amount of melittin was then co-injected with the indicated amount of ApoB siRNA-cholesterol conjugate. Effect on ApoB levels were determined as described above.
Melittin peptides containing the indicated PEG amino terminal modifications were synthesized as described above. The PEG amino terminal modified melittin peptides were then reversibly modified with 5×CDM-NAG as described above. The indicated amount of Melittin was then co-injected with the 100-200 μg ApoB siRNA-cholesterol conjugate. Effect on ApoB levels were determined as described above. Addition of PEG less than 5 kDa in size decreased toxicity of the melittin peptides.

Factor VII = assay: Knockdown of plasma Factor VII activity in rats after co-injection of CDM-NAG masked melittin and cholesterol-Factor VII siRNA; format: in vivo; conditions: 5× CDM-NAG, 3 mg/kg cholesterol-Factor VII siRNA
Experimental: as §1
Wistar Han rats, 175-200 g were obtained from Charles River (Wilmington, Mass.). Rats were housed at least 1 week prior to injection. Injection volume for rats was typically 1 ml.
Plasma samples from animals were prepared by collecting blood (9 volumes) (by submandibular bleeding for mice or from jugular vein for rats) into microcentrifuge tubes containing 0.109 mol/L sodium citrate anticoagulant (1 volume) following standard procedures. F7 activity in plasma is measured with a chromogenic method using a BIOPHEN VII kit (Hyphen BioMed/Aniara, Mason, Ohio) following manufacturer's recommendations. Absorbance of colorimetric development was measured using a Tecan Safire2 microplate reader at 405 nm.
The indicated melittin was reversibly modified with 5×CDM-NAG as described above. The indicated amount of melittin, in mg per kg animal weight, was then co-injected with the 3 mg/kg cholesterol— Factor VII siRNA. Effect on Factor VII levels were determined as described above.

[1] = amount in column 'siRNA' 400 μg
[2] = peptide 1 (mg per kg animal weight), relative to isotonic glucose injected animals
[3] = 50 μg peptide per mouse, 100 μg siRNA per mouse
[4] = 100 μg peptide per mouse, 100 μg siRNA per mouse

GIGAILKVLATGLPTLISWIKNKRKQ (listed as Apis florea) [Seq ID 1, Apis florea melittin]
% knockdown (ApoB; 5× CDM-NAG, 100 μg peptide, relative to isotonic glucose injected animals): 25% | % knockdown (ApoB; 5× CDM-NAG, 200 μg peptide): 51% | % knockdown (ApoB; 5× CDM-NAG, 400 μg peptide): 78% | % knockdown (ApoB; 5× CDM-NAG, 800 μg peptide): 87% | % knockdown (ApoB; 5× CDM-NAG, 1200 μg peptide): 94% | % knockdown (ApoB; 5× CDM-PEG, 800 μg peptide, relative to isotonic glucose injected animals): 0% | percent knockdown (ApoB; amount in column 'siRNA' 200 μg): 90% | percent knockdown (ApoB; [1]): 80% | Factor VII knockdown (Factor VII; [2]): 30 | Factor VII knockdown (Factor VII; peptide 3 (mg per kg)): 83 | Factor VII knockdown (Factor VII; peptide 10 (mg per kg)): 90 | Factor VII knockdown (Factor VII; peptide 20 (mg per kg)): 95

Mel-Cys (Seq ID 62): melittin peptide derivative (GIGAILKVLATGLPTLISWIKNKRKQC; C-terminal Cys; melittin-like peptide derive from Apis florea)
percent knockdown (ApoB; 400 μg peptide per mouse, 100 μg siRNA per mouse): 83%

Mel-NH2 (Seq ID 116): melittin peptide derivative (GIGAILKVLATGLPTLISWIKNKRKQ-NH2)
percent knockdown (ApoB; [3]): 86%

N22T Mel-NH2 (Seq ID 15): melittin peptide derivative (GIGAILKVLATGLPTLISWIKTKRKQ-NH2)
percent knockdown (ApoB; [3]): 34%

PEG24-GKLK-Mel G1L (Seq ID 59): melittin peptide derivative ([PEG24′]GKLKLIGAILKVLATGLPTLISWIKNKRKQ)
percent knockdown (ApoB; [3]): 85%

PEG(5k)-KLK-dMel G1Y (Seq ID 56): melittin peptide derivative ({PEG 5k}-KLK[dY][dI]G[dA][dI][dL][dK][dV][dL][dA][dT]G[dL][dP][dT][dL][dI][dS][dW][dI][dK][dN][dK][dR][dK][dQ])
percent knockdown (ApoB; 300 μg peptide per mouse, 100 μg siRNA per mouse): 72%

QKRKNKIWSILTPLGTALVKLIAGIG-NH2 [Seq ID 96]
percent knockdown (ApoB; siRNA 20 mg/kg): 70%

QQKKKKIWSILAPLGTTLVKLVAGIC-NH2 [Seq ID 93]
percent knockdown (ApoB; siRNA 20 mg/kg): 70%

QQRKRKIWSILAALGTTLVKLVAGIC-NH2 (also: retro-inverso, methoxy, position not given here) [Seq ID 95 Retroinverso Methoxy]
percent knockdown (ApoB; amount in column 'siRNA' 30 mg/kg): 39%

QQRKRKIWSILAALGTTLVKLVAGIC-NH2 [Seq ID 95]
percent knockdown (ApoB; siRNA 20 mg/kg): 91%

QQRKRKIWSILAPLGTTLVKLVAGIC-(N-PDP-PE)-NH2 (not fully specified (some residues, C-terminus); also: D-amino acids, positions not given here) [PE = dioleolyl-phosphatidyl-ethanolamine]
percent knockdown (ApoB; 400 μg peptide per mouse, 200 μg siRNA per mouse): 55%

QQRKRKIWSILAPLGTTLVKLVAGIC-NH2 [Seq ID 92]
percent knockdown (ApoB; [1]): 85% | percent knockdown (ApoB; siRNA 20 mg/kg): 94%

T11A, T15A, S18A (Seq ID 40): melittin peptide derivative (GIGAILKVLACGLPALIAWIKNKRKQ; melittin-like peptide derive from Apis florea)
percent knockdown (ApoB; [3]): 38%

T11G, T15G, S18G (Seq ID 39): melittin peptide derivative (GIGAILKVLACGLPGLIGWIKNKRKQ; melittin-like peptide derive from Apis florea)
percent knockdown (ApoB; [3]): 32%

YIGAILKVLATGLPTLISWIKNKRKQ (melittin-like peptide derive from Apis florea) [Seq ID 11]
Factor VII knockdown (Factor VII; [2]): 93 | Factor VII knockdown (Factor VII; peptide 3 (mg per kg)): 97

dimethyl-dMel I2L, I5L, T11C, I17L, I20L dMel (Seq ID 46): melittin peptide derivative (dimethyl-GLGALLKVLACGLPTLLSWLKNKRKQ; not fully specified (some residues); also: D-amino acids, positions not given here)
percent knockdown (ApoB; [4]): 87%

dimethyl-dMel I2Nle, I5Nle, T11C, I17Nle, I20Nle dMel (Seq ID 47): melittin peptide derivative (G[Nle]GA[Nle]LKVLACGLPTL[Nle]SW[Nle]KNKRKQ; also: dimethyl, site not given here, D-amino acids, positions not given here)
percent knockdown (ApoB; [4]): 78%

myristoyl-CKLK-Mel G1L (Seq ID 111): melittin peptide derivative (Myristoyl-CKLKLIGAILKVLATGLPTLISWIKNKRKQ)
percent knockdown (ApoB; 80 μg peptide per mouse, 100 μg siRNA per mouse): 96%
